ChEMBL document CHEMBL4665622, “Repurposing ibuprofen to control Staphylococcus aureus biofilms” (2019)
The source made the active and inactive calls. The rule behind the calls is not given here.

Key:
Staphylococcus aureus [1] = experiment: Antibiofilm activity against Staphylococcus aureus RN4220 preform-matured biofilm assessed as reduction in CFU per cm2 at 10 times of MIC incubated upto 24 hrs; format: functional; conditions: time hrs <=24
Staphylococcus aureus [2] = experiment: Antibiofilm activity against Staphylococcus aureus RN4220 preform-matured biofilm assessed as reduction in CFU per cm2 at 5 times of MIC incubated upto 24 hrs; format: functional; conditions: time hrs <=24
Staphylococcus aureus [3] = experiment: Antibiofilm activity against Staphylococcus aureus SA1199B preform-matured biofilm assessed as reduction in CFU at 5 and 10 times of MIC incubated upto 24 hrs relative to control; format: functional; set-up: scale not given: the % may be the effect or the level left; conditions: time hrs <=24
Staphylococcus aureus [4] = experiment: Antibiofilm activity against Staphylococcus aureus XU212 preform-matured biofilm assessed as reduction in CFU upto 10 times of MIC incubated upto 24 hrs relative to control; format: functional; set-up: scale not given: the % may be the effect or the level left; conditions: time hrs <=24
Staphylococcus aureus [5] = experiment: Antibiofilm activity against Staphylococcus aureus SA1199B preform-matured biofilm assessed as increase in biofilm inactivation upto 10 times of MIC incubated upto 24 hrs relative to control; format: functional; conditions: time hrs <=24
Staphylococcus aureus [6] = experiment: Antibiofilm activity against Staphylococcus aureus XU212 preform-matured biofilm assessed as increase in biofilm removal at MIC incubated upto 24 hrs relative to control; format: functional; conditions: time hrs <=24
Staphylococcus aureus [7] = experiment: Antibiofilm activity against Staphylococcus aureus XU212 preform-matured biofilm assessed as increase in biofilm inactivation upto 10 times of MIC incubated upto 24 hrs relative to control; format: functional; conditions: time hrs <=24
Staphylococcus aureus [8] = experiment: Antibiofilm activity against Staphylococcus aureus XU212 preform-matured biofilm assessed as increase in biofilm removal at 5 and 10 times of MIC incubated upto 24 hrs relative to control; format: functional; conditions: time hrs <=24
Staphylococcus aureus [9] = experiment: Antibiofilm activity against Staphylococcus aureus SA1199B preform-matured biofilm assessed as increase in biofilm removal at 5 and 10 times of MIC incubated upto 24 hrs relative to control; format: functional; conditions: time hrs <=24
Staphylococcus aureus [10] = experiment: Antibiofilm activity against Staphylococcus aureus SA1199B preform-matured biofilm assessed as increase in biofilm removal at MIC incubated upto 24 hrs relative to control; format: functional; conditions: time hrs <=24
Staphylococcus aureus [11] = experiment: Antibiofilm activity against Staphylococcus aureus RN4220 preform-matured biofilm assessed as increase in biofilm removal at 5 and 10 times of MIC incubated upto 24 hrs relative to control; format: functional; conditions: time hrs <=24
Staphylococcus aureus [12] = experiment: Antibiofilm activity against Staphylococcus aureus RN4220 preform-matured biofilm assessed as increase in biofilm removal at MIC incubated upto 24 hrs relative to control; format: functional; conditions: time hrs <=24
Staphylococcus aureus [13] = experiment: Antibiofilm activity against Staphylococcus aureus CECT 976 preform-matured biofilm assessed as reduction in CFU per cm2 at MIC incubated for 6 hrs; format: functional
Staphylococcus aureus [14] = experiment: Antibiofilm activity against Staphylococcus aureus CECT 976 preform-matured biofilm assessed as reduction in CFU at MIC incubated for 24 hrs; format: functional, organism-based
Staphylococcus aureus [15] = experiment: Antibiofilm activity against Staphylococcus aureus RN4220 preform-matured biofilm assessed as increase in biofilm inactivation upto 10 times of MIC incubated upto 24 hrs relative to control; format: functional; conditions: time hrs <=24
Staphylococcus aureus [16] = experiment: Antibiofilm activity against Staphylococcus aureus CECT 976 preform-matured biofilm assessed as increase in biofilm inactivation at upto 10 times of MIC incubated upto 24 hrs relative to control; format: functional; conditions: time hrs <=24
Staphylococcus aureus [17] = experiment: Antibiofilm activity against Staphylococcus aureus CECT 976 preform-matured biofilm assessed as increase in biofilm removal at upto 10 times of MIC incubated for 24 hrs; format: functional, organism-based; conditions: time 1.0 hrs
Staphylococcus aureus [18] = experiment: Antibiofilm activity against Staphylococcus aureus CECT 976 preform-matured biofilm assessed as increase in biofilm removal at upto 10 times of MIC incubated for 1 hr; format: functional, organism-based
Staphylococcus aureus [19] = experiment: Antibiofilm activity against Staphylococcus aureus CECT 976 preform-matured biofilm assessed as increase in biofilm removal at 10 times of MIC incubated for 6 hrs relative to control; format: functional
Staphylococcus aureus [20] = experiment: Antibiofilm activity against Staphylococcus aureus CECT 976 preform-matured biofilm assessed as increase in biofilm removal at 5 times of MIC incubated for 6 hrs relative to control; format: functional
Staphylococcus aureus [21] = experiment: Antibiofilm activity against Staphylococcus aureus CECT 976 preform-matured biofilm assessed as increase in biofilm removal at MIC incubated for 6 hrs relative to control; format: functional
Staphylococcus aureus [22] = experiment: Inhibition of cell adhesion in Staphylococcus aureus CECT 976 assessed as decrease in CFU at 10 times of MIC incubated upto 24 hrs relative to control; format: functional; conditions: time hrs <=24
Staphylococcus aureus [23] = experiment: Inhibition of cell adhesion in Staphylococcus aureus CECT 976 assessed as decrease in biomass content incubated upto 24 hrs; format: functional, organism-based; conditions: time hrs <=24
Staphylococcus aureus [24] = experiment: Inhibition of cell adhesion in Staphylococcus aureus CECT 976 assessed as decrease in biomass content at upto 10 times of MIC incubated upto 24 hrs relative to control; format: functional; conditions: time hrs <=24
Cell membrane [25] = experiment: Effect on surface tension of Staphylococcus aureus CECT 976 assessed as hydrophobicity at MIC incubated for 1 hr (reference value: 34.8 +/- 1.3 mJ/m2); format: subcellular
Cell membrane [26] = experiment: Effect on surface tension of Staphylococcus aureus CECT 976 assessed as hydrophobicity at 0.5 times of MIC incubated for 1 hr (reference value: 34.8 +/- 1.3 mJ/m2); format: subcellular
Cell membrane [27] = experiment: Effect on surface tension of Staphylococcus aureus CECT 976 assessed as hydrophobicity at 0.25 times of MIC incubated for 1 hr (reference value: 34.8 +/- 1.3 mJ/m2); format: subcellular
Cell membrane [28] = experiment: Effect on surface tension of Staphylococcus aureus CECT 976 assessed as electron donor component at MIC incubated for 1 hr (reference value: 55 +/- 0.9 mJ/m2); format: subcellular
Cell membrane [29] = experiment: Effect on surface tension of Staphylococcus aureus CECT 976 assessed as electron donor component at 0.5 times of MIC incubated for 1 hr (reference value: 55 +/- 0.9 mJ/m2); format: subcellular
Cell membrane [30] = experiment: Effect on surface tension of Staphylococcus aureus CECT 976 assessed as electron donor component at 0.25 times of MIC incubated for 1 hr (reference value: 55 +/- 0.9 mJ/m2); format: subcellular
Cell membrane [31] = experiment: Effect on surface tension of Staphylococcus aureus CECT 976 assessed as electron acceptor component at MIC incubated for 1 hr (reference value: 0.5 +/- 0.1 mJ/m2); format: subcellular

With `CC(C)Cc1ccc(C(C)C(=O)O)cc1` (stereo unspecified) [IBUPROFEN] the Activity (Staphylococcus aureus [1]) was 2.5 log10CFU, the Activity (Staphylococcus aureus [2]) was 1.8 log10CFU and the Activity (Staphylococcus aureus [3]) was 100%. For the same compound, the Activity (Staphylococcus aureus [4]) was 100%, the Activity (Staphylococcus aureus [5]) was “<=55%” and the Activity (Staphylococcus aureus [6]) was “<=14%”. The Activity (Staphylococcus aureus [7]) was “<=55%”, the Activity (Staphylococcus aureus [8]) was 0% and the Activity (Staphylococcus aureus [9]) was 0%. For the same compound, the Activity (Staphylococcus aureus [10]) was “<=14%”, the Activity (Staphylococcus aureus [11]) was 0% and the Activity (Staphylococcus aureus [12]) was “<=14%”. The Activity (Staphylococcus aureus [13]) was 0.8 log10CFU, the inhibition (Staphylococcus aureus [14]) was “Active” and the Activity (Staphylococcus aureus [15]) was “<=55%”. For the same compound, the “inhibition (INH)” value (Staphylococcus aureus [16]) was “<=80%”, the inhibition (Staphylococcus aureus [17]) was “Dose-dependent effect” and the inhibition (Staphylococcus aureus [18]) was “Dose-dependent effect”. For the same compound, the “inhibition (INH)” value (Staphylococcus aureus [19]) was 39%, the “inhibition (INH)” value (Staphylococcus aureus [20]) was 42% and the “inhibition (INH)” value (Staphylococcus aureus [21]) was 42%. The “inhibition (INH)” value (Staphylococcus aureus [22]) was 100%, the inhibition (Staphylococcus aureus [23]) was “Dose-dependent effect” and the “inhibition (INH)” value (Staphylococcus aureus [24]) was “<=38.5%”. It also gave an Activity (Cell membrane [25]) of 30.1 mJ/m2, an Activity (Cell membrane [26]) of 27.9 mJ/m2 and an Activity (Cell membrane [27]) of 27.3 mJ/m2. It also gave an Activity (Cell membrane [28]) of 50 mJ/m2, an Activity (Cell membrane [29]) of 49.7 mJ/m2 and an Activity (Cell membrane [30]) of 48.8 mJ/m2. For the same compound, the Activity (Cell membrane [31]) was 1.7 mJ/m2.
